Here are results for nine molecules from patent EP1060182B1, “NOVEL PRODRUGS FOR PHOSPHORUS-CONTAINING COMPOUNDS” (Metabasis Therapeutics, Inc., priority 1998, dated 1999).

Entries after “also recorded” stand apart in the source; their conditions may differ.

For series [1] the following is noted: in rodents; cited from earlier work.
A further series deals with recombinant CYP3A4. As to the kind of experiment: Activation by recombinant CYP3A4 (Example G). In kind it is in vitro ADME. The settings on record: 28.4 at 100 µM, 37°C, NADPH dependent, linear for 30 minutes. The method, then:
Activation of 30.1 and 28.4 was evaluated in reactions containing microsomes from baculovirus-infected insect cells co-expressing recombinant CYP3A4 and cytochrome p450 reductase (Panvera Corp., Madison, WI).
Methods: Reaction mixture composition was similar to that described in Example E. Reactions were terminated by addition of methanol to a final concentration of 60%, and products typically analyzed by HPLC with use of a YMC reverse phase C8 column (250 x 4.6 mm). […] The effluent was monitored at 254 nm.

A short description of series [2]: Hepatic PMEA-diphosphate and plasma PMEA after intravenous dosing (Example P). Format: in vivo, rat. The settings on record: 10 mg/kg PMEA equivalents i.v.
Series [3] concerns isolated rat hepatocytes. The series can be described thus: Active drug metabolites formed after prodrug activation in isolated rat hepatocytes (Example K). The note with it: for Product concentration nmoles/g cells (PMEApp): time point 4h.
Method: Methods: Hepatocytes were prepared and incubated as described in Example I. 28.4 and 30.1 and their respective parent compounds, PMEA and ara-AMP, were dissolved in DMSO or methanol to yield 10 mM stock solutions, and then diluted into the cell suspension to yield a final concentration of 100 µM. At appropriate time points over the course of 2-4 hours, aliquots of the cell suspension were removed and spun through a silicon/mineral oil layer into 10% perchloric acid. The cell extracts in the acid layers were neutralized by the addition of 0.3 volumes of 3M KOH/3M KHCO3, and the extract was then centrifuged, filtered (0.2 micron filter) and loaded onto an anion exchange HPLC column equilibrated with 70% A (10 mM ammonium phosphate pH 3.5, 6% ETOH) and 30% B (1 M ammonium phosphate pH 3.5, 6% ETOH). Ara-ATP and PMEApp were eluted with a gradient to 80% B. Detection was at 254 nm.
For series [4], the system named is glucose production in isolated rat hepatocytes. As to the kind of experiment: Inhibition of glucose production in rat hepatocytes (Example J). Format: cell-based. The settings on record: 1 hour, lactate 10 mM / pyruvate 1 mM. The method, then:
Select prodrugs of FBPase inhibitors were tested for inhibition of glucose production in isolated rat hepatocytes.
After a 10 minute equilibration period, lactate and pyruvate were added to 10 mM and 1 mM concentrations, respectively. Addition of gluconeogenic substrates was immediately followed by that of appropriate concentrations of test compound. After 1 hour, an aliquot (0.25 ml) was removed, transferred to an Eppendorf tube and centrifuged. The supernatant (50 µl) was then assayed for glucose content using a Glucose Oxidase kit (Sigma Chemical Co.) as per the manufacturer's instructions.

Series [5] can be described thus: Stability in plasma (Example C). The note with it: 37°C, 5-8 hours, reverse phase HPLC. In kind it is in vitro ADME, rat.
Method: Methods: Compounds were incubated in plasma at 37°C, and aliqouts removed at appropriate time points over the course of 5-8 hours. The aliquots were extracted with 1.5 volumes of methanol and clarified by centrifugation. Supernatants were then evaporated to dryness and the residues reconstituted with 100 µL of isotonic saline and then analyzed by reverse phase HPLC.
Series [6] in a line: Liver ara-ATP and plasma/urine ara-hypoxanthine after intravenous dosing (Example O). In kind it is in vivo, rat. The method, then:
The temporal profile of ara-hypoxanthine and ara-ATP generation following intravenous administration of 30.1 and free ara-AMP was compared in the rat.
Method: 30.1 and ara-AMP (Sigma) were administered to normal, fasted rats intravenously (in saline) via tail vein catheters. At appropriate time points following drug a administration, animals were lightly anesthetized with halothane. The peritoneal cavity was then opened and a blood sample was obtained from the abdominal vena cava and the liver freeze-clamped and excised.
The blood samples were heparinized and plasma was prepared. Plasma samples (100 µL) were mixed with 4 N perchloric acid (40 µL), vortexed, and then clarified by centrifugation. The supernatants were analyzed for ara-hypoxanthine by HPLC with use of a Beckman Ultrasphere ODS column (4.6 x 150 mm). The column was eluted with 100 mM acetic acid at a flow rate of 1.0 mL/min. The eluent was monitored by UV absorbance at 254 nm.
Livers were immediately homogenized in 3 volumes of 10% perchloric acid (w/w), and the extracts clarified by centrifugation at 2500 x g (5 minutes). The resulting supernatants were removed and neutralized with 0.3 volumes of 3M KOH/ 3M KHCO3. The neutralized liver extracts were then spun in an Eppendorf microfuge at 10,000 rpm (20 minutes, 4°C). The supernatants were analyzed for ara-ATP content by reverse phase HPLC (HP1050) using a Whatman Partisphere SA column (4.6 x 125 mm). A gradient from 0.3M ammonium phosphate buffer pH 3.5 to 0.8M ammonium phosphate pH 3.5 was run (1 ml/minute flow rate).
Renal excretion of araH following i.v. administration of 30.1 or ara-AMP was determined as described in Example Q.

The conditions of series [7]: i.v., over 2.5 minutes; cited from earlier work.
The conditions of series [8]: intravenous administration to human patients; cited from earlier work.
In the next series the test system is Rat liver microsomes. The note with it: linear over a 5 hour reaction period, equimolar products. The method, then: 1.1 was evaluated for microsome-catalyzed conversion to parent compound 2-{5-[9-(2-Phenylethyl)-8-adeninyl]} furanylphosphonic acid and phenol, an expected byproduct of the reaction.
Methods: Rat liver microsomes were prepared as described in Example I. Reaction conditions, sample processing, and HPLC analysis were as described in Example D. Phenol was identified by HPLC by its retention time and spectral characteristics relative to an authentic standard.

In series [9] the test system is microsomal fraction of rat liver. The series can be described thus: Activation by rat liver microsomes (Example D). In kind it is in vitro ADME. The note with it: 100 µM 7.1, 37°C; in the presence, but not in the absence of, NADP+; rate linearly dependent on microsomal protein. The method, then: The pellet was resuspended in homogenization buffer and recentrifuged.
Reactions were carried out at 37°C.
Reactions are monitored spectrophotometrically at 340 nm.

The test system of series [10] is microsomal fraction of human liver. As to the kind of experiment: Activation by human liver microsomes (Example E). In kind it is in vitro ADME. The settings on record: 250 µM prodrug, 37°C, NADPH-generating system. The method, then: 7.1, 1.3, and 30.1 were tested for conversion to their respective parent compounds by the microsomal fraction of human liver.
Series [11] has as its system isolated rat hepatocytes. As to the kind of experiment: Activation to parent compound in isolated rat hepatocytes (Example I). The settings on record: 100 µM prodrug, peak within 15 minutes of addition. Format: cell-based. From the text: An ODS column was used for analysis. […] Detection was at 310 nm.

For the molecule `CC(C)(C)C(=O)OCOP(=O)(OCOC(=O)C(C)(C)C)C(CCCc1cccc(Oc2ccccc2)c1)S(=O)(=O)O` (centres unmarked) [BMS 188494], the oral bioavailability in series [1] is on record as below 2%.
Turning to `Nc1ncnc2c1ncn2CCOCP1(=O)OCCC(c2ccncc2)O1` (centres unmarked) [Compound 28.4, 9-[2-(1-(4-Pyridyl)-1,3-propylphosphonomethoxy)ethyl]adenine], the “rate of formation of PMEA” value in the series with recombinant CYP3A4 is reported as 3.1 ± 0.1 nmoles/ min/ nmole CYP3A4. Besides, in series [2], the PMEA-diphosphate in liver entry was “readily detectable levels” and the “Plasma PMEA levels relative to bisPOM-PMEA” value was “greater than 10 fold lower”. In addition, the “Product concentration nmoles/g cells (PMEApp)” value in the series with isolated rat hepatocytes [3] (Dose 100 µM) came out at 169 nmoles/g cells.
In series [4], `CC(=O)OCC1COP(=O)(c2ccc(-c3nc4c(N)ncnc4n3CC(C)(C)C)o2)OC1` (centres unmarked) [Compound 7.5, 6-Amino-9-neopentyl-8-{5-[2'-(acetoxymethyl)-propan-1',3'-yl]phosphono-2-furanyl}purine] came in with an IC50 of 13 µM.
Take `CC(C)(C)Cn1c(-c2ccc(P3(=O)OC4CC(O)CC(C4)O3)o2)nc2c(N)ncnc21` (centres unmarked) [Compound 1.2, 6-Amino-8-(5'-hydroxyl-1',3'-cyclohexyl)phosphonofuranyl-9-neopentyl purine]: in series [5], the “metabolism / degradation in fresh rat plasma” value was “not degraded”.
For `Nc1ncnc2c1ncn2[C@@H]1O[C@H](COP(=O)(O)O)[C@@H](O)[C@@H]1O` [araAMP, reference compound], the “persistence of ara-hypoxanthine in plasma” value in series [6] (ara-AMP i.v. at equivalent doses) was determined as 8 h. The “ara-hypoxanthine (araH) in plasma” value in series [6] (i.v., 30.1 at 10 and 3 mg/kg, ara-AMP at equivalent doses) was “µmolar levels”. The “plasma half-life of free ara-AMP relative to 30.1” value in [6] (judged by inability to detect the compound in plasma) is on record as “considerably shorter”. The “drop of plasma ara-AMP levels” value in series [7] is reported as “greater than 90%”. Moreover, the ara-AMP in plasma result in [8] is “not detected in plasma”. Moreover, the “Product concentration nmoles/g cells (ara-ATP)” value in the series on isolated rat hepatocytes [3] (Dose 100 µM, time point 2h) was 212±0.6 nmoles/g cells.
Take `Nc1ncnc2c1nc(-c1ccc(P3(=O)OC4CC(O)CC(C4)O3)o1)n2CCc1ccccc1` (centres unmarked) [Compound 1.1, 6-Amino-8-(5'-hydroxyl-1',3'-cyclohexyl)phosphonofuranyl-9-phenethyl purine]: the “metabolism / degradation in fresh rat plasma” value in [5] is reported as “not degraded; also recorded: no evidence of metabolism”. For the same molecule, half-maximal inhibition in [4] (IC50) was put at 77 µM. For the same molecule, the “rate of generation of 2-{5-[9-(2-Phenylethyl)-8-adeninyl]}furanylphosphonic acid and phenol” value with Rat liver microsomes is 15 pmoles /mg microsomal protein/minute.
For the molecule `CC(C)(C)C(=O)OCOP(=O)(COCCn1cnc2c(N)ncnc21)OCOC(=O)C(C)(C)C` [bisPOM-PMEA, reference compound], the PMEA-diphosphate in liver result in [2] was “readily detectable levels”.
As to `Nc1ncnc2c1ncn2CCOCP(=O)(O)O` [PMEA, 9-(2-phosphonylmethoxyethyl) adenine, reference compound], in the series with isolated rat hepatocytes [3] (Dose 250 µM), the “Product concentration nmoles/g cells (PMEApp)” value turned out to be 120 nmoles/g cells.
Take `CC(C)Cn1c(-c2ccc(P3(=O)OCC(CO)CO3)o2)nc2ccc(Cl)cc21` (centres unmarked) [Compound 7.1, 6-Chloro-1-isobutyl-2-{5-[2'-(hydroxymethyl)-propan-1',3'-yl]phosphono-2-furanyl}benzimidazole]: the “conversion to parent compound” value in [9] is recorded as “converted to parent compound”. Further, the “rate of formation of parent compound” value in [10] is on record as 0.85 nmoles/mg microsomal protein/minute. Further, the “peak intrahepatocyte levels of 6-Chloro-1-isobutyl-2-(2-Phosphono-5-furanyl)benzimidazole” value with isolated rat hepatocytes [11] was “approximately 700 nmoles/g cells”. Further, in series [4] (Rattus norvegicus, Hepatocyte, read-out: % inhibition @ 100 µM, 100 µM), the inhibition at 100 µM was 65%. Further, in series [4] (Rattus norvegicus, Hepatocyte), 48 µM corresponded to half-maximal inhibition (IC50).
